According to patent publication US8569384B2, “Antimicrobial compositions” (3M Innovative Properties Company, priority 2006, dated 2013):
Counter-ions that a name gives are not always drawn.

Tested on: E. faecalis; ATCC #10741
Assay: Direct Inoculation Filter Assay (residual efficacy on filter paper)
Type: cell-based, Enterococcus faecalis
Settings: 2.0% ester with 4.0% cetyl alcohol and CHG in dried waxy coatings (Table 3)
Protocol: Direct Innoculation Filter Assay
This is an in vitro assay using filter paper to compare the residual efficacy of different surgical skin prep formulations.
Phosphate Buffered Water solution (PBW) was made by making a 0.25M stock solution by putting 34 grams KH2PO4 into 500 mL of DI water, adjusting the pH to 7.2 with 10N NaOH, and adding enough DI water to make 1 liter. The solution was filtered, sterilized, dispensed into a 1 liter sterile bottle, and stored under refrigeration. Butterfield's PBW was made by adding 1.25 mL of the stock solution to 900 mL of DI water and adding neutralizers, stirring, heating to dissolve the components, and diluting to 1 liter with DI water. The solution was mixed well, dispensed into two 500-mL bottles. The bottles containing the solution were autoclaved for 25 minutes at 121 degree C. The contents were carefully swirled after removing the bottles from the autoclave.
A Standard Sampling Solution (SSS) was prepared which contained: 0.4 grams KH2PO4, 10.1 grams Na2HPO4, 1.0 gram TRITON X-100 surfactant, 3.0 grams lecithin, 30.0 grams TWEEN 80, and deionized water to bring the total volume to 1 liter. […]
Onto each filter disc was pipetted 25 μL of each Example preparation or control. […] After 48 hours, colonies were counted and recorded.
The CFU/mL was determined by multiplying CFU count by dilution rate. The CFU/sample was calculated by multiplying the CFU/mL by 20, the amount of the SSS dilution. The log10 of the CFU/sample was calculated. […]

| SMILES | Effect of emollient ester on bactericidal activity of the CHG |
| --- | --- |
| CC(C)OC(=O)CCCCC(=O)OC(C)C [diisopropyl adipate, Diisopropyl adipate] | significantly enhanced the bactericidal activity of the CHG |
| CCCCCCCCCCCCCCCC(=O)OC(C)C [isopropyl palmitate, Isopropyl palmitate] | did not enhance the activity of the CHG |
| CCCCOC(=O)CC(O)(CC(=O)OCCCC)C(=O)OCCCC [tributyl citrate, Tributyl citrate] | significantly enhanced the bactericidal activity of the CHG |
